In one assay the test system is liverwort. Kind of assay: Liverwort control by spraying. The assay is classed as in vivo. The conditions noted are these: for contribution to phytotoxicity, in words: liverwort; for liverwort control, in words: sprayed on liverwort. The source says:
The sinalbin had been hydrolyzed to undetectable levels.

The test system of assay [1] is weeds, vegetative cover, wheat, cotton. To be noted: cited from earlier work.
For a further assay, the system named is potato sprouting. To be noted: in vivo; cited from earlier work.

Consider 6 compounds from patent US10588321B2, “Method for using mustard meal or an extract thereof” (University of Idaho, priority 2015, dated 2020).

In the case of `OCc1ccc(O)cc1` [4-hydroxybenzyl alcohol], in the assay with liverwort, the “contribution to phytotoxicity, in words” value is listed as “primary phytotoxic compounds” and the “liverwort control, in words” value was “did not control the liverwort as effectively as applying the extract”. In the assay with liverwort (listed as 4-OH benzyl alcohol), the “contribution to phytotoxicity, in words” value is given as “more phytotoxic that SCN^−”.
Take `N#CCc1ccc(O)cc1` [4-hydroxyphenyl acetonitrile]: in the assay with liverwort, the “contribution to phytotoxicity, in words” value is given as “primary phytotoxic compounds” and the “liverwort control, in words” value was “did not control the liverwort as effectively as applying the extract”. For the same compound, the “contribution to phytotoxicity, in words” value in the assay on liverwort (listed as nitrile) was “much more phytotoxic than SCN^−”.
`N#CS` [SCN^−, ionic thiocyanate]: the “contribution to phytotoxicity, in words” value in the assay with liverwort is recorded as “minor contributor”. The “rate causing inhibition of wheat germination” value in assay [1] (effect no longer observed at 69 days post application) was 342 kilograms SCN^−/ha. In assay [1] (in vivo), the “rate necessary for complete plant kill for 4 months” value is listed as 1,366 kg SCN^−/ha and the “rate removing a large percentage of the weeds” value is given as 137 kilograms SCN^−/ha. In addition, the “rate at which cotton defoliation was possible” value in assay [1] (solutions sprayed directly on vegetative growth) is 8.6 kilograms SCN^−/ha.
As to `N.N#CS` [ammonium thiocyanate (NH4SCN), ammonium thiocyanate], the “effect on potato sprouting, in words” value in the assay on potato sprouting is recorded as “promote potato sprouting”.
In the case of `N#C[S-].[K+]` [potassium thiocyanate (KSCN), potassium thiocyanate], the “effect on potato sprouting, in words” value in the assay on potato sprouting is “promote potato sprouting”.
As to `N#C[S-].[Na+]` [sodium thiocyanate (NaSCN), sodium thiocyanate], the “effect on potato sprouting, in words” value with potato sprouting was “promote potato sprouting”.
